According to EP3521435A1, “A HIGH STRINGENCY SELECTION SYSTEM FOR PROTEIN EXPRESSION IN PROLINE-AUXOTROPHIC CELLS” (Bayer AG, priority 2018, dated 2019):

What was measured:
CHO-K1 cells [1] = experiment: Flow cytometric analysis of GFP expression (MFI, high fluorescing cells) in stably selected cell populations; format: cell-based, Chinese hamster; details: day 15 post-transfection, pJF1555
Outline: (§1)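 Suspension CHO-K1 nucleofected (1e7 cells, 5 µg linearized DNA) with GFP vectors carrying puromycin marker plus SV40-driven murine P5CS; seeded 2e5 viable cells/ml, selected with 10 µg/ml puromycin or in proline/ornithine-free medium ± added pressure, viability tracked over time. GFP read by flow cytometry (yellow channel, PI-excluded dead cells): MFI and % high fluorescers above set threshold.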

CHO-K1 cells [2] = experiment: Cell viability post-transfection of transfected cell populations under selection conditions; format: cell-based, Chinese hamster
Outline: as §1

[3] = CD-Fusion w/o Pro + 0.2 mM Orn + 10 µg/ml Puromycin
[4] = CD-Fusion w/o Pro + 1 mM Orn + 10 µg/ml Puromycin
[5] = CD-Fusion w/o Pro + 5 mM Orn + 10 µg/ml Puromycin
[6] = MOCK, CD-Fusion w/o Pro + 5 mM Orn

Compound: NCCC[C@H](N)C(=O)O [Orn, L-Ornithine]
- Frequency of high fluorescing cells (CHO-K1 cells [1]; CD-Fusion w/o Pro + 0.2 mM Orn): 2.4%
- Median Fluorescence Intensity (MFI) (yellow) (CHO-K1 cells [1]; CD-Fusion w/o Pro + 0.2 mM Orn): 3337
- Frequency of high fluorescing cells (CHO-K1 cells [1]; [3]): 4.1%
- Median Fluorescence Intensity (MFI) (yellow) (CHO-K1 cells [1]; [3]): 4665
- Frequency of high fluorescing cells (CHO-K1 cells [1]; CD-Fusion w/o Pro + 0.25 mM Ornithine): 6.3%
- Frequency of high fluorescing cells (CHO-K1 cells [1]; CD-Fusion w/o Pro + 0.5 mM Ornithine): 4.1%
- Frequency of high fluorescing cells (CHO-K1 cells [1]; CD-Fusion w/o Pro + 1 mM Orn): 2.4%
- Median Fluorescence Intensity (MFI) (yellow) (CHO-K1 cells [1]; CD-Fusion w/o Pro + 1 mM Orn): 3121
- Frequency of high fluorescing cells (CHO-K1 cells [1]; [4]): 2.8%
- Median Fluorescence Intensity (MFI) (yellow) (CHO-K1 cells [1]; [4]): 3739
- Frequency of high fluorescing cells (CHO-K1 cells [1]; CD-Fusion w/o Pro + 1 mM Ornithine): 2.3%
- Frequency of high fluorescing cells (CHO-K1 cells [1]; CD-Fusion w/o Pro + 2 mM Ornithine): 0.7%
- Frequency of high fluorescing cells (CHO-K1 cells [1]; CD-Fusion w/o Pro + 3 mM Ornithine): 2.6%
- Frequency of high fluorescing cells (CHO-K1 cells [1]; CD-Fusion w/o Pro + 4 mM Ornithine): 1.5%
- Frequency of high fluorescing cells (CHO-K1 cells [1]; CD-Fusion w/o Pro + 5 mM Orn): 0.5%
- Median Fluorescence Intensity (MFI) (yellow) (CHO-K1 cells [1]; CD-Fusion w/o Pro + 5 mM Orn): 1435
- Frequency of high fluorescing cells (CHO-K1 cells [1]; [5]): 6.1%
- Median Fluorescence Intensity (MFI) (yellow) (CHO-K1 cells [1]; [5]): 4103
- Frequency of high fluorescing cells (CHO-K1 cells [1]; CD-Fusion w/o Pro + 5 mM Ornithine): 1.7%
- Viability on day 12 post-transfection (CHO-K1 cells [2]; [6]): 45%
- Viability on day 14 post-transfection (CHO-K1 cells [2]; [6]): 43%
- Viability on day 14 post-transfection (CHO-K1 cells [2]; pJF1555, CD-Fusion w/o Pro + 0.2 mM Orn): 83%
- Viability on day 14 post-transfection (CHO-K1 cells [2]; pJF1555, CD-Fusion w/o Pro + 0.2 mM Orn + 10 µg/ml Puromycin): 73%
- Viability on day 12 post-transfection (CHO-K1 cells [2]; pJF1555, CD-Fusion w/o Pro + 0.25 mM Ornithine): 88%
- Viability on day 12 post-transfection (CHO-K1 cells [2]; pJF1555, CD-Fusion w/o Pro + 0.5 mM Ornithine): 87%
- Viability on day 14 post-transfection (CHO-K1 cells [2]; pJF1555, CD-Fusion w/o Pro + 1 mM Orn): 87%
- Viability on day 14 post-transfection (CHO-K1 cells [2]; pJF1555, CD-Fusion w/o Pro + 1 mM Orn + 10 µg/ml Puromycin): 75%
- Viability on day 12 post-transfection (CHO-K1 cells [2]; pJF1555, CD-Fusion w/o Pro + 1 mM Ornithine): 91%
- Viability on day 12 post-transfection (CHO-K1 cells [2]; pJF1555, CD-Fusion w/o Pro + 2 mM Ornithine): 49%
- Viability on day 12 post-transfection (CHO-K1 cells [2]; pJF1555, CD-Fusion w/o Pro + 3 mM Ornithine): 36%
- Viability on day 12 post-transfection (CHO-K1 cells [2]; pJF1555, CD-Fusion w/o Pro + 4 mM Ornithine): 55%
- Viability on day 14 post-transfection (CHO-K1 cells [2]; pJF1555, CD-Fusion w/o Pro + 5 mM Orn): 51%
- Viability on day 14 post-transfection (CHO-K1 cells [2]; pJF1555, CD-Fusion w/o Pro + 5 mM Orn + 10 µg/ml Puromycin): 13%
- Viability on day 12 post-transfection (CHO-K1 cells [2]; pJF1555, CD-Fusion w/o Pro + 5 mM Ornithine): 53%
- concentration at which recovery kinetics were affected (CHO-K1 cells [2]; pJF1555, proline-free medium, Table 8): ≥ 2 mM
